Reference: US20230227442A1, “HETEROALKYL DIHYDROQUINOLINE SULFONAMIDE COMPOUNDS” (AMGEN INC., priority 2020, published 2023)

How the values were obtained:
Human Nav1.7 = target: T1, Human Nav1.7 (Homo sapiens, UniProt Q15858); test: Ionworks Barracuda (IWB) automated patch clamp assay; format: cell-based; conditions: population patch clamp, HEK cells, 4 min compound incubation at -20 mV; read-out: hNaV1.7 IWB-U IC50
T1 construct: expressed in transfected cells; host or cells: Spiking HEK cells (without Kir2.1 transfection)
T1 sequence (Q15858 whole entry): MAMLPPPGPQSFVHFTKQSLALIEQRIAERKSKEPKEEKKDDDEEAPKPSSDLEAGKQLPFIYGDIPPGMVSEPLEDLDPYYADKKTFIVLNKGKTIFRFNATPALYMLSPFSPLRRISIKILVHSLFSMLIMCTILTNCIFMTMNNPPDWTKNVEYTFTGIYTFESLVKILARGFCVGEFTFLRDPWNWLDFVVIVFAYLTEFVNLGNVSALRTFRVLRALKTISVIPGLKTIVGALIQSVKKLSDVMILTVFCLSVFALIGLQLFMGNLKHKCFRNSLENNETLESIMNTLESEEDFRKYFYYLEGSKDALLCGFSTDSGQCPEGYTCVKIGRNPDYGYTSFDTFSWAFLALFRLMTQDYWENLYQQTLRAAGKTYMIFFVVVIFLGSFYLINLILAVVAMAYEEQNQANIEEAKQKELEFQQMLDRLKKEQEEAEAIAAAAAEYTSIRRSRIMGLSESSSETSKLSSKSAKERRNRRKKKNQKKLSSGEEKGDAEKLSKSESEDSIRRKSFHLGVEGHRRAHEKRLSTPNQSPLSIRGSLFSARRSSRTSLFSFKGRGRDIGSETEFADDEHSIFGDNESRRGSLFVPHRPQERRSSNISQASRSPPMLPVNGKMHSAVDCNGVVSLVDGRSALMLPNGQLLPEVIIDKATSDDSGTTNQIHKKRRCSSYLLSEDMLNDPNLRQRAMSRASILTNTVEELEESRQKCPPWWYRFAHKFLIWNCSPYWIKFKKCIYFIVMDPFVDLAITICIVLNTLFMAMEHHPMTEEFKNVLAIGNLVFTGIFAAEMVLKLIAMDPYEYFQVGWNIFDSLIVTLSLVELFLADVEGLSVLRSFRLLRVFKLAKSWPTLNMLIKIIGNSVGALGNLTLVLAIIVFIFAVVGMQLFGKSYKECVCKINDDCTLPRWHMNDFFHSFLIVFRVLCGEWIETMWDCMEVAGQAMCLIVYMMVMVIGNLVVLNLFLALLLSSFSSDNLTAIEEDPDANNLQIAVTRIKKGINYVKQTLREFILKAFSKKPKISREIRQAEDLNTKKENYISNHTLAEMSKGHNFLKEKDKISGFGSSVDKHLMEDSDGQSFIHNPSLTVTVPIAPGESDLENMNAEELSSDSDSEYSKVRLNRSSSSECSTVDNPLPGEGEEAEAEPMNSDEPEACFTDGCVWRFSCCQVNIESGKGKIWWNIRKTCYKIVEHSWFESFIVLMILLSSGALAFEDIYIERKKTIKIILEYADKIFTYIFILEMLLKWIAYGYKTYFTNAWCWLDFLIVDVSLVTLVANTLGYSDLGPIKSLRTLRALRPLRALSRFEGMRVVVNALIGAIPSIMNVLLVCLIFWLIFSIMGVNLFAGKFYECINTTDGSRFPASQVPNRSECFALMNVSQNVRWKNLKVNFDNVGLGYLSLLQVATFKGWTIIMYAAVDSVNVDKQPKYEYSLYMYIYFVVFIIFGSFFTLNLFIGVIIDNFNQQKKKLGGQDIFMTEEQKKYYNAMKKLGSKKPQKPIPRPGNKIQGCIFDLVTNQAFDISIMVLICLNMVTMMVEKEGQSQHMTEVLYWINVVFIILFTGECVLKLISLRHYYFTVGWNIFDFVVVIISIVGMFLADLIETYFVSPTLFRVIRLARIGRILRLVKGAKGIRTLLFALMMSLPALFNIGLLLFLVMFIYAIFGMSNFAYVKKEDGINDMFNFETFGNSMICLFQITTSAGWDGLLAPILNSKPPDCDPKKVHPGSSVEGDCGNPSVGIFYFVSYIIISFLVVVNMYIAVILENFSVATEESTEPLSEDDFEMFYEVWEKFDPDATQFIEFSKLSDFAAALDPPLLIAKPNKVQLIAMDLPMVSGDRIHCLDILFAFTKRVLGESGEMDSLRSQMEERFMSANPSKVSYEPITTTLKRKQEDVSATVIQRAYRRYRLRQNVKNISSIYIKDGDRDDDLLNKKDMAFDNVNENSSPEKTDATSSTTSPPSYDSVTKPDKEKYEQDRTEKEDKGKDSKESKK
Method: Ionworks Barracuda Automated Patch Clamp Assay (Same Protocol for Both Human and Mouse)
Human Nav1.7 currents were recorded in population patch-clamp mode with the IWB automated electrophysiology system (Molecular Devices, LLC, Sunnyvale, Calif.). Spiking HEK cells (without Kir2.1 transfection) were cultured and prepared for recordings as previously described for IonWorks Quattro testing^1. The external solution consisted of the following (in mM): NaCl 140, KCl 5, CaCl2 2, MgCl2 1, HEPES 10, and glucose 11, pH 7.4, with N-methyl-D-glucamine at 320 mOsmol. The internal solution consisted of the following (in mM): KCl 70, KF 70, MgCl2 0.25, HEDTA 5, and HEPES 10, pH 7.25, with Nmethyl-D-glucamine, 300 mOsmol. From a holding potential of −110 mV, currents were elicited by a train of 26 depolarizations of 150 ms duration to −20 mV at a frequency of 5 Hz. Cells were then clamped to −20 mV for a period of 4 minutes in the presence of a single concentration of test compound. Following this compound incubation period, cells were clamped to −110 mV for three seconds to recover unbound channels and put through the same 26 pulse voltage protocol as above. Peak inward current during the 26th pulse to −20 mV in the presence of compound was divided by the peak inward current evoked by the 26th pulse to −20 mV in the absence of compound to determine percent inhibition. Concentration-response curves of percent inhibition as a function of concentration were generated to calculate IC50 values as described in Kornecook, T. J.; Yin, R.; Altmann, S.; et al. Pharmacologic Characterization of AMG8379, a Potent and Selective Small Molecule Sulfonamide Antagonist of the Voltage-Gated Sodium Channel NaV1. 7. J. Pharmacol. Exp. Ther. 2017, 362, 146-160.

CYP3A4 = test: Human CYP 3A4 induction assay (mRNA, cryopreserved human hepatocytes); format: in vitro ADME; conditions: 72 hours, percent of control (POC); for CYP3A4 mRNA Induct Hu 2 uM POC: 2 uM test compound; for CYP3A4 mRNA Induct Hu 10 uM POC: 10 uM test compound
Method: Human CYP 3A4 Induction Assay
Cryopreserved human hepatocytes were seeded in 96-well collagen coated plates at 70,000 cells per well in hepatocyte plating media (HPM, final concentrations: lx Dulbecco's Modified Eagle's Medium, 0.1 μM dexamethasone, 10% fetal bovine serum, lx ITS, 1×PSG) followed by incubation at 37° C. under 5% CO2 and 90% relative humidity for 2 days to allow hepatocytes to form a confluent layer. On Day 3, hepatocytes were treated with either test compound or rifampin (20 μM, positive control for CYP3A induction) prepared in hepatocyte incubation media ((HIM, final concentrations: 1× William's Medium E, 0.1 μM dexamethasone, 1×ITS, 1×PSG). Treatment was performed for 72 hours with either 2 concentrations (2 μM or 10 μM) or a range of concentrations (0.001 μM to 100 μM) of the test compound to obtain full dose-response curve. Fresh media containing the relevant concentrations of the test compound was replaced every day until the samples were processed. After 72 hours of incubation, samples were processed for mRNA analysis using bDNA technology using manufacturer's instructions (Affymetrix, Fremont, Calif.). Cell viability was tested at the end of the experiment using MTT assay kit (Roche Diagnostics, Basel, Switzerland). Data was analyzed and presented as percent of control (POC) and Emax and EC50 obtained when appropriate according to guidance from Center for Drug Evaluation and Research (CDER), 2006, Guidance for Industry, Drug Interaction Studies—Study Design, Data Analysis, and Implications for Dosing and Labeling.
Cryopreserved human hepatocytes were seeded in 96-well collagen coated plates at 70,000 cells per well in hepatocyte plating media (HPM, final concentrations: lx Dulbecco's Modified Eagle's Medium, 0.1 μM dexamethasone, 10% fetal bovine serum, lx ITS, 1×PSG) followed by incubation at 37° C. under 5% CO2 and 90% relative humidity for 2 days to allow hepatocytes to form a confluent layer. On Day 3, hepatocytes were treated with either test compound or rifampin (20 μM, positive control for CYP3A induction) prepared in hepatocyte incubation media ((HIM, final concentrations: 1× William's Medium E, 0.1 μM dexamethasone, 1×ITS, 1×PSG). Treatment was performed for 72 hours with either 2 concentrations (2 μM or 10 μM) or a range of concentrations (0.001 μM to 100 μM) of the test compound to obtain full dose-response curve. Fresh media containing the relevant concentrations of the test compound was replaced every day until the samples were processed. After 72 hours of incubation, samples were processed for mRNA analysis using bDNA technology using manufacturer's instructions (Affymetrix, Fremont, Calif.). Cell viability was tested at the end of the experiment using MTT assay kit (Roche Diagnostics, Basel, Switzerland). Data was analyzed and presented as percent of control (POC) and Emax and EC50 obtained when appropriate, as described in Halladay, J. et al, 2012, An “all-inclusive” 96-well cytochrome P450 induction method: Measuring enzyme activity, mRNA levels, protein levels, and cytotoxicity from one well using cryopreserved human hepatocytes, Pharmacological and Toxicological Methods, 66:270-275.

| Compound | IC50 (Human Nav1.7) | CYP3A4 mRNA Induct Hu 2 uM POC (CYP3A4) | CYP3A4 mRNA Induct Hu 10 uM POC (CYP3A4) |
| --- | --- | --- | --- |
| COc1cc(CCC(F)(F)F)c(F)cc1-n1c(=O)ccc2cc(S(=O)(=O)Nc3ccon3)ccc21 (atropisomer, axis not shown; (P)) [Compound A, (P)-1-(5-fluoro-2-methoxy-4-(3,3,3-trifluoropropyl)phenyl)-N-(1,2-oxazol-3-yl)-2-oxo-1,2-dihydro-6-quinolinesulfonamide, reference compound] | 14 nM | 41.9% | 76.1% |
| COc1cc(COC(F)(F)F)c(Cl)cc1-n1c(=O)ccc2cc(S(=O)(=O)Nc3ccon3)ccc21 (atropisomer, axis not shown; (P)) [Example 1, (P)-1-(5-chloro-2-methoxy-4-((trifluoromethoxy)methyl)phenyl)-N-(isoxazol-3-yl)-2-oxo-1,2-dihydroquinoline-6-sulfonamide] | 7 nM | 1.7% | – |
| COc1cc(SC(F)(F)F)c(Cl)cc1-n1c(=O)ccc2cc(S(=O)(=O)Nc3ccon3)ccc21 (atropisomer, axis not shown; (P)) [Example 2, (P)-1-(5-chloro-2-methoxy-4-((trifluoromethyl)thio)phenyl)-N-(isoxazol-3-yl)-2-oxo-1,2-dihydroquinoline-6-sulfonamide] | 8 nM | – | – |
| COc1cc(OC(F)(F)F)c(Cl)cc1-n1c(=O)ccc2cc(S(=O)(=O)Nc3ccon3)ccc21 (atropisomer, axis not shown; (P)) [Example 3, (P)-1-(5-chloro-2-methoxy-4-(trifluoromethoxy)phenyl)-N-(isoxazol-3-yl)-2-oxo-1,2-dihydroquinoline-6-sulfonamide] | 9 nM | 10.1% | 35.4% |
| COc1cc(COC(F)(F)F)c(F)cc1-n1c(=O)ccc2cc(S(=O)(=O)Nc3ccon3)ccc21 (atropisomer, axis not shown; (P)) [Example 4, (P)-1-(5-fluoro-2-methoxy-4-((trifluoromethoxy)methyl)phenyl)-N-(isoxazol-3-yl)-2-oxo-1,2-dihydroquinoline-6-sulfonamide] | 11 nM | 0.2% | 0.2% |
| COc1cc(SCC(F)(F)F)c(F)cc1-n1c(=O)ccc2cc(S(=O)(=O)Nc3ccon3)ccc21 (atropisomer, axis not shown; (P)) [Example 5, (P)-1-(5-fluoro-2-methoxy-4-((2,2,2-trifluoroethyl)thio)phenyl)-N-(isoxazol-3-yl)-2-oxo-1,2-dihydroquinoline-6-sulfonamide] | 11 nM | 3.4% | 7.5% |
| COc1cc(COC(F)(F)F)c(F)cc1-n1c(=O)ccc2cc(S(=O)(=O)Nc3ccon3)c(F)cc21 (atropisomer, axis not shown; (P)) [Example 6, (P)-7-fluoro-1-(5-fluoro-2-methoxy-4-((trifluoromethoxy)methyl)phenyl)-N-(isoxazol-3-yl)-2-oxo-1,2-dihydroquinoline-6-sulfonamide] | 11 nM | 18.3% | 30.1% |
| COc1cc(SC(F)(F)F)c(F)cc1-n1c(=O)ccc2cc(S(=O)(=O)Nc3ccon3)c(F)cc21 (atropisomer, axis not shown; (P)) [Example 7, (P)-7-fluoro-1-(5-fluoro-2-methoxy-4-((trifluoromethyl)thio)phenyl)-N-(isoxazol-3-yl)-2-oxo-1,2-dihydroquinoline-6-sulfonamide] | 11 nM | 20.9% | 54.2% |
| COc1cc(SC(F)(F)F)c(F)cc1-n1c(=O)ccc2cc(S(=O)(=O)Nc3ccon3)ccc21 (atropisomer, axis not shown; (P)) [Example 8, (P)-1-(5-fluoro-2-methoxy-4-((trifluoromethyl)thio)phenyl)-N-(isoxazol-3-yl)-2-oxo-1,2-dihydroquinoline-6-sulfonamide] | 15 nM | 6.1% | 24.5% |
| COc1cc(OC(F)(F)F)c(F)cc1-n1c(=O)ccc2cc(S(=O)(=O)Nc3ccon3)ccc21 (atropisomer, axis not shown; (P)) [Example 9, (P)-1-(5-fluoro-2-methoxy-4-(trifluoromethoxy)phenyl)-N-(isoxazol-3-yl)-2-oxo-1,2-dihydroquinoline-6-sulfonamide] | 21 nM | 7.8% | 22.2% |
| COc1cc(OCC(F)(F)F)c(F)cc1-n1c(=O)ccc2cc(S(=O)(=O)Nc3ccon3)ccc21 (atropisomer, axis not shown; (P)) [Example 10, (P)-1-(5-fluoro-2-methoxy-4-(2,2,2-trifluoroethoxy)phenyl)-N-(isoxazol-3-yl)-2-oxo-1,2-dihydroquinoline-6-sulfonamide] | 21 nM | 10.8% | 35.7% |
| COc1cc(OCC(F)(F)F)c(Cl)cc1-n1c(=O)ccc2cc(S(=O)(=O)Nc3ccon3)ccc21 (atropisomer, axis not shown; (P)) [Example 15, (P)-1-(5-chloro-2-methoxy-4-(2,2,2-trifluoroethoxy)phenyl)-N-(isoxazol-3-yl)-2-oxo-1,2-dihydroquinoline-6-sulfonamide] | 23 nM | 7.7% | 20.2% |
| COc1cc(O[C@H](C)C(F)(F)F)c(F)cc1-n1c(=O)ccc2cc(S(=O)(=O)Nc3ccon3)c(F)cc21 (atropisomer, axis not shown; (P)) [Example 16, (P)-(R)-7-fluoro-1-(5-fluoro-2-methoxy-4-((1,1,1-trifluoropropan-2-yl)oxy)phenyl)-N-(isoxazol-3-yl)-2-oxo-1,2-dihydroquinoline-6-sulfonamide] | 24 nM | 3.9% | 7.2% |
| COc1cc(O[C@@H](C)C(F)(F)F)c(F)cc1-n1c(=O)ccc2cc(S(=O)(=O)Nc3ccon3)c(F)cc21 (atropisomer, axis not shown; (P)) [Example 17, (P)-(S)-7-fluoro-1-(5-fluoro-2-methoxy-4-((1,1,1-trifluoropropan-2-yl)oxy)phenyl)-N-(isoxazol-3-yl)-2-oxo-1,2-dihydroquinoline-6-sulfonamide] | 27 nM | 16.3% | 39.8% |
